# Target: T1, human alpha 7-wt nAChR (Homo sapiens, UniProt P36544)
# T1 construct: expressed in transfected cells
# Test: Ca2+ flux imaging (FDSS) (Protocol B)
# Assay type: cell-based
# Settings: for Emax: efficacy of 100 μM choline defined as 100% in the absence of a PAM, read-out: a7-PAM-G_[33]_Eff_Curve_FI % Efficacy; for EC50: potentiation of 100 μM choline, compounds 0.01 μM to 30 μM, read-out: a7-PAM-G_[33]_pEC50 pEC50 (converted)
# Experimental: Ca^2+ Flux Imaging (FDSS) (Protocol B)
# • Hanks buffered saline solution (HBSS, Invitrogen, Belgium), supplemented with 10 mM HEPES (Invitrogen, Belgium), CaCl2 to a final concentration of 5 mM, 0.1% Bovine serum albumin (Sigma-Aldrich NV, Belgium). b) Calcium-Sensitive Dye—Fluo-4AM • Fluo-4AM (Molecular Probes, USA) was dissolved in DMSO containing 10% Pluronic acid (Molecular Probes, USA) to give a stock solution which was diluted in assay buffer supplemented with 5 mM probenicid (Sigma, Aldrich NV, Belgium) to give a final concentration of 2 μM. c) 384-Well Plates • Black-sided, transparent bottomed 384 well plates coated with poly-D-lysine, PDL pre-coated (Corning, Incorporated, USA) d) Calcium Flux Measurement • A Functional drug screening system (FDSS, Hamamatsu) was used to measure intracellular free-calcium flux signals. Method
# Monolayers of human alpha 7-wt nAChR-expressing cells were grown in black-sided, transparent bottomed 384 well plates coated with PDL for 24 hours prior to loading with a fluorescent calcium indicator, fluo-4AM for up to 120 minutes.
# PAM activity was detected in real time by applying the compounds to be tested to the loaded cells along with an alpha 7 nicotinic receptor agonist during constant monitoring of cellular fluorescence in a FDSS. Compounds giving peak fluorescent responses greater than the response due to agonist alone, were considered to be alpha 7 nAChR PAMs. The alpha 7 nicotinic receptor agonist was choline, applied at a sub-maximal concentration of 100 μM. In a further setting of the present invention the compounds were applied prior to the alpha 7 nicotinic receptor agonist, in a particular 10 minutes prior to the agonist.
# A control response to choline was calculated on each plate from the difference in peak in fluorescence in wells receiving either choline or assay buffer alone. Compounds of the present invention were tested at a concentration range from 0.01 μM to 30 μM. Compounds were considered to have an interesting activity when they potentiated the choline signal at least with 200% when tested at a concentration of 30 μM (the efficacy of 100 μM choline was defined as 100% in the absence of a PAM). An EC50 (or pEC50) was determined as a concentration relating to half the maximal effect, when a clear sigmoidal curve with top plateau was obtained.
# T1 sequence (P36544 23-502): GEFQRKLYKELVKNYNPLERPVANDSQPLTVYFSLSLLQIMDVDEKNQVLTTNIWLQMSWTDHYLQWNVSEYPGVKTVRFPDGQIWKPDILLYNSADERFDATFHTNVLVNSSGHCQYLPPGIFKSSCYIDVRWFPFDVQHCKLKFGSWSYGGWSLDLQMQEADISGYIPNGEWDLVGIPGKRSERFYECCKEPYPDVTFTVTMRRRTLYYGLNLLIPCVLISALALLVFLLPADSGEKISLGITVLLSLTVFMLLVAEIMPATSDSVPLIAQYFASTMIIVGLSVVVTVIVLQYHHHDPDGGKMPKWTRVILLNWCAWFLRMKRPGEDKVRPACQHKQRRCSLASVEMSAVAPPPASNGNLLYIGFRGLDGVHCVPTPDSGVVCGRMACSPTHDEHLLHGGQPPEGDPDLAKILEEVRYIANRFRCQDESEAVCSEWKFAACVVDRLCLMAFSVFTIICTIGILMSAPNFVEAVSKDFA
Emax [%],EC50 [nM],Compound
425,776,"Cc1cc(-c2sc(N3C[C@@H](C)O[C@@H](C)C3)nc2CNC(=O)c2oc(C)cc2C)cc(C)n1 [Compound 173, N-[[2-[(2R,6S)-2,6-dimethyl-4-morpholinyl]-5-(2,6-dimethyl-4-pyridinyl)-4-thiazolyl]methyl]-3,5-dimethyl-2-furancarboxamide]"
392,31.6,"Cc1cc(-c2sc(N3C[C@@H](C(F)(F)F)O[C@@H](C)C3)nc2CNC(=O)CC2CC2)cc(C)n1 [Compound 204, N-[[5-(2,6-dimethyl-4-pyridinyl)-2-[(2S,6S)-2-methyl-6-(trifluoromethyl)-4-morpholinyl]-4-thiazolyl]methyl]-cyclopropaneacetamide]"
945,3800,"Cc1cc(-c2sc(N3CCOC[C@@H]3C)nc2CNC(=O)c2cc(C)on2)cc(C)n1 [Compound 186, N-[[5-(2,6-dimethyl-4-pyridinyl)-2-[(3S)-3-methyl-4-morpholinyl]-4-thiazolyl]methyl]-5-methyl-3-isoxazolecarboxamide]"
–,7.24,"Cc1cc(-c2sc(N3C[C@@H](C)O[C@@H](C(F)(F)F)C3)nc2CNC(=O)CC2CC2)cc(C)n1 [Compound 203, N-[[5-(2,6-dimethyl-4-pyridinyl)-2-[(2R,6R)-2-methyl-6-(trifluoromethyl)-4-morpholinyl]-4-thiazolyl]methyl]-cyclopropaneacetamide]"
313,–,"Cc1cc(-c2sc(N3C[C@@H](C)O[C@@H](C)C3)nc2CNC(=O)c2ccccc2F)cc(C)n1 [Compound 6, N-[[2-[(2R,6S)-2,6-dimethyl-4-morpholinyl]-5-(2,6-dimethyl-4-pyridinyl)-4-thiazolyl]methyl]-2-fluoro-benzamide]"
484,20,"Cc1cc(-c2sc(N3C[C@@H](C)O[C@@H](C)C3)nc2CNC(=O)c2ccc(Cl)cc2C)cc(C)n1 [Compound 22, 4-chloro-N-[[2-[(2R,6S)-2,6-dimethyl-4-morpholinyl]-5-(2,6-dimethyl-4-pyridinyl)-4-thiazolyl]methyl]-2-methyl-benzamide]"
783,692,"Cc1cc(-c2sc(N3CC(C)OC(C)C3)nc2CNC(=O)C2CCC2)cc(C)n1 (racemic) [Compound 57, N-[[2-[2,6-dimethyl-4-morpholinyl]-5-(2,6-dimethyl-4-pyridinyl)-4-thiazolyl]methyl]-cyclobutanecarboxamide]"
–,692,"Cc1cc(-c2sc(N3C[C@@H](C)O[C@@H](C)C3)nc2CNC(=O)c2cc(C3CC3)on2)cc(C)n1 [Compound 127, 5-cyclopropyl-N-[[2-[(2R,6S)-2,6-dimethyl-4-morpholinyl]-5-(2,6-dimethyl-4-pyridinyl)-4-thiazolyl]methyl]-3-isoxazolecarboxamide]"
650,81.3,"Cc1cc(-c2sc(N3C[C@@H](C)O[C@@H](C)C3)nc2CNC(=O)c2conc2C)cc(C2CC2)n1 [Compound 106, N-[[5-(2-cyclopropy1-6-methyl-4-pyridinyl)-2-[(2R,6S)-2,6-dimethyl-4-morpholinyl]-4-thiazolyl]methyl]-3-methyl-4-isoxazolecarboxamide]"
651,22.4,"Cc1cc(-c2sc(N3C[C@@H](C)O[C@@H](C)C3)nc2CNC(=O)C2CCCC2)cc(C)n1 [Compound 16, N-[[2-[(2R,6S)-2,6-dimethyl-4-morpholinyl]-5-(2,6-dimethyl-4-pyridinyl)-4-thiazolyl]methyl]-cyclopentanecarboxamide]"
237,–,"Cc1cc(-c2sc(N3C[C@@H](C)O[C@@H](C)C3)nc2CNC(=O)C2(C)CC2)cc(C)n1 [Compound 34, N-[[2-[(2R,6S)-2,6-dimethyl-4-morpholinyl]-5-(2,6-dimethyl-4-pyridinyl)-4-thiazolyl]methyl]-1-methyl-cyclopropanecarboxamide]"
–,977,"CCCC(=O)NCc1nc(N2CC(C)OC(C)C2)sc1-c1cc(C)nc(C)c1 (racemic) [Compound 61, N-[[2-[2,6-dimethyl-4-morpholinyl]-5-(2,6-dimethyl-4-pyridinyl)-4-thiazolyl]methyl]-butanamide]"
780,26.9,"Cc1cc(-c2sc(N3C[C@@H](C)O[C@@H](C)C3)nc2CNC(=O)c2ccc(F)cc2C)cc(C2CC2)n1 [Compound 107, N-[[5-(2-cyclopropy1-6-methyl-4-pyridinyl)-2-[(2R,6S)-2,6-dimethyl-4-morpholinyl]-4-thiazolyl]methyl]-4-fluoro-2-methyl-benzamide]"
–,6920,"Cc1cc(-c2sc(N3C[C@@H](C)O[C@@H](C)C3)nc2CNC(=O)c2ocnc2C)cc(C)n1 [Compound 152, N-[[2-[(2R,6S)-2,6-dimethyl-4-morpholinyl]-5-(2,6-dimethyl-4-pyridinyl)-4-thiazolyl]methyl]-4-methyl-5-oxazolecarboxamide]"
–,871,"Cc1cc(-c2sc(N3C[C@@H](C)O[C@@H](C)C3)nc2CNC(=O)c2ccoc2C)cc(C)n1 [Compound 151, N-[[2-[(2R,6S)-2,6-dimethyl-4-morpholinyl]-5-(2,6-dimethyl-4-pyridinyl)-4-thiazolyl]methyl]-2-methyl-3-furancarboxamide]"
495,–,"Cc1cc(-c2sc(N3C[C@@H](C)O[C@@H](C)C3)nc2CNC(=O)c2coc(C)n2)cc(C)n1 [Compound 31, N-[[2-[(2R,6S)-2,6-dimethyl-4-morpholinyl]-5-(2,6-dimethyl-4-pyridinyl)-4-thiazolyl]methyl]-2-methyl-4-oxazolecarboxamide]"
–,6610,"Cc1nocc1C(=O)NCc1nc(N2C[C@@H](C)O[C@@H](C)C2)sc1-c1ccncc1 [Compound 101, N-[[2-[(2R,6S)-2,6-dimethyl-4-morpholinyl]-5-(4-pyridinyl)-4-thiazolyl]methyl]-3-methyl-4-isoxazolecarboxamide]"
462,–,"Cc1cc(-c2sc(N3C[C@@H](C)O[C@@H](C)C3)nc2CNC(=O)c2cc(C)n(C)n2)cc(C)n1 [Compound 131, N-[[2-[(2R,6S)-2,6-dimethyl-4-morpholinyl]-5-(2,6-dimethyl-4-pyridinyl)-4-thiazolyl]methyl]-1,5-dimethyl-1H-pyrazole-3-carboxamide]"
–,794,"Cc1cc(-c2sc(N3CC(C)OC(C)C3)nc2CNC(=O)CC2CC2)cc(C)n1 (racemic) [Compound 55, N-[[2-[2,6-dimethyl-4-morpholinyl]-5-(2,6-dimethyl-4-pyridinyl)-4-thiazolyl]methyl]-cyclopropaneacetamide]"
572,72.4,"Cc1ccc(C(=O)NCc2nc(N3C[C@@H](C)O[C@@H](C)C3)sc2-c2cc(C)nc(C)c2)c(C)c1 [Compound 21, N-[[2-[(2R,6S)-2,6-dimethyl-4-morpholinyl]-5-(2,6-dimethyl-4-pyridinyl)-4-thiazolyl]methyl]-2,4-dimethyl-benzamide]"
671,–,"Cc1cc(-c2sc(N3C[C@@H](C)O[C@@H](C)C3)nc2CNC(=O)c2cn(C)nc2C)cc(C)n1 [Compound 169, N-[[2-[(2R,6S)-2,6-dimethyl-4-morpholinyl]-5-(2,6-dimethyl-4-pyridinyl)-4-thiazolyl]methyl]-1,3-dimethyl-1H-pyrazole-4-carboxamide]"
523,661,"Cc1cc(-c2sc(N3C[C@@H](C)O[C@@H](C)C3)nc2CNC(=O)c2ccccc2F)ccn1 [Compound 92, N-[[2-[(2R,6S)-2,6-dimethyl-4-morpholinyl]-5-(2-methyl-4-pyridinyl)-4-thiazolyl]methyl]-2-fluoro-benzamide]"
409,447,"Cc1cc(-c2sc(N3C[C@@H](C)O[C@@H](C)C3)nc2CNC(=O)[C@H]2CCOC2)cc(C)n1 [Compound 28, (3S)-N-[[2-[(2R,6S)-2,6-dimethyl-4-morpholinyl]-5-(2,6-dimethyl-4-pyridinyl)-4-thiazolyl]methyl]tetrahydro-3-furancarboxamide]"
–,2820,"COCCC(=O)NCc1nc(N2C[C@@H](C)O[C@@H](C)C2)sc1-c1cc(C)nc(C)c1 [Compound 53, N-[[2-[(2R,6S)-2,6-dimethyl-4-morpholinyl]-5-(2,6-dimethyl-4-pyridinyl)-4-thiazolyl]methyl]-3-methoxy-propanamide]"

Compound,Emax [%],EC50 [nM]
"Cc1cc(-c2sc(N3C[C@@H](C)O[C@@H](C)C3)nc2CNC(=O)c2cc(C(C)(C)C)on2)cc(C)n1 [Compound 143, 5-(1,1-dimethylethyl)-N-[[2-[(2R,6S)-2,6-dimethyl-4-morpholinyl]-5-(2,6-dimethyl-4-pyridinyl)-4-thiazolyl]methyl]-3-isoxazolecarboxamide]",–,891
